In patent publication EP0570197A1, “Hydroxylamine derivatives” (ZENECA LIMITED, priority 1992, dated 1993):

Columns and labels:
5-LO [1] = target: T1, 5-LO (Homo sapiens, UniProt P09917); test: Test a): in vitro heparinised human blood challenged with calcium ionophore A23187, radioimmunoassay of LTB₄; format: cell-based; details: heparinised human blood, A23187 challenge; read-out: IC₅₀ against LTB₄ in test a)
T1 construct: incubating a test compound with heparinised human blood, prior to challenge with the calcium ionophore A23187; endogenous in cells; host or cells: human whole blood (blood cells), heparinised
T1 sequence (P09917 1-674): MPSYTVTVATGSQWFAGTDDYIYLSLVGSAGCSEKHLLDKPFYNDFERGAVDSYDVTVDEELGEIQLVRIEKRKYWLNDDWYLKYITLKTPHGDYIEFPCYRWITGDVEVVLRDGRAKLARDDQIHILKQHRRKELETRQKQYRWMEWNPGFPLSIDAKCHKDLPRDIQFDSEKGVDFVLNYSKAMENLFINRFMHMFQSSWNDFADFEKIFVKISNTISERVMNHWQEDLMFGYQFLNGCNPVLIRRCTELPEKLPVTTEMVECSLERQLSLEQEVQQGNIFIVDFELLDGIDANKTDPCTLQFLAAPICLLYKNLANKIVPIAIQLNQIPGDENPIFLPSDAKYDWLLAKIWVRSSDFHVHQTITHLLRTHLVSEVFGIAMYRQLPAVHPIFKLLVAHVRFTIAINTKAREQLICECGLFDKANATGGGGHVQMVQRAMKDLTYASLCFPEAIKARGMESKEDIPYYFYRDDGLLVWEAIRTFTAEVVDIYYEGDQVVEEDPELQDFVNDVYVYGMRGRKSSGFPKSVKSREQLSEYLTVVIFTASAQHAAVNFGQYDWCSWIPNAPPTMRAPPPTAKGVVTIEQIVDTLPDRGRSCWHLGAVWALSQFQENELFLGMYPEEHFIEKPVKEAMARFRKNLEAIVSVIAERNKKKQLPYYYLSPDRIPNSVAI
Excerpt: As stated previously, the compounds of the formula I are inhibitors of the enzyme 5-LO. […] J. Pharmacol., 1985, 84, 34P) which involve the use of a protein-LTB₄ conjugate produced using the procedure of Young et alia (Prostaglandins, 1983, 26(4), 605-613). The effects of a test compound on the enzyme cyclooxygenase (which is involved in the alternative metabolic pathway for arachidonic acid and gives rise to prostaglandins, thromboxanes and related metabolites) may be measured at the same time using the specific radioimmunoassay for thromboxane B₂(TxB₂) described by Carey and Forder (see above). This test provides an indication of the effects of a test compound against 5-LO and also cyclooxygenase in the presence of blood cells and proteins. It permits the selectivity of the inhibitory effect on 5-LO or cyclooxygenase to be assessed. • b) An ex vivo assay system, which is a variation of test a) above, involving administration to a group of rats of a test compound (usually orally as the suspension produced when a solution of the test compound in dimethylsulphoxide is added to carboxymethylcellulose), blood collection, heparinisation, challenge with A23187 and radioimmunoassay of LTB₄ and TxB₂. This test provides an indication of the bioavailability of a test compound as an inhibitor of 5-LO or cyclooxygenase. • c) An in vivo system involving measuring the effects of a test compound administered orally against the liberation of LTB₄ induced by zymosan within an air pouch generated within the subcutaneous tissue of the back of male rats. The rats are anaesthetised and air pouches are formed by the injection of sterile air (20 ml). A further injection of air (10 ml) is similarly given after 3 days. At 6 days after the initial air injection the test compound is administered (usually orally as the suspension produced when a solution of the test compound in dimethylsulphoxide is added to hydroxypropylmethylcellulose), followed by the intrapouch injection of zymosan (lml of a 1% suspension in physiological saline). […]

5-LO [2] = test: Test c): in vivo zymosan-induced LTB₄ liberation in a subcutaneous air pouch; parameters: species or system male rats; details: rats killed after 3 hours
Excerpt: As stated previously, the compounds of the formula I are inhibitors of the enzyme 5-LO. […] J. Pharmacol., 1985, 84, 34P) which involve the use of a protein-LTB₄ conjugate produced using the procedure of Young et alia (Prostaglandins, 1983, 26(4), 605-613). The effects of a test compound on the enzyme cyclooxygenase (which is involved in the alternative metabolic pathway for arachidonic acid and gives rise to prostaglandins, thromboxanes and related metabolites) may be measured at the same time using the specific radioimmunoassay for thromboxane B₂(TxB₂) described by Carey and Forder (see above). This test provides an indication of the effects of a test compound against 5-LO and also cyclooxygenase in the presence of blood cells and proteins. It permits the selectivity of the inhibitory effect on 5-LO or cyclooxygenase to be assessed. • b) An ex vivo assay system, which is a variation of test a) above, involving administration to a group of rats of a test compound (usually orally as the suspension produced when a solution of the test compound in dimethylsulphoxide is added to carboxymethylcellulose), blood collection, heparinisation, challenge with A23187 and radioimmunoassay of LTB₄ and TxB₂. […]

| SMILES | IC50 (5-LO [1]) [nM] | oral ED₅₀ versus LTB₄ in test c) (5-LO [2]) |
| --- | --- | --- |
| COC1(c2cc(F)cc(Sc3ccc(C(C)ONC(C)=O)cc3)c2)CCOCC1 (stereo not drawn) [Example 2, 4-[5-fluoro-3-(4-methoxytetrahydropyran-4-yl)phenylthio]-α-methylbenzyl acetohydroxamate] | 190 |  |
| COC1(c2cc(F)cc(Sc3ccc(C(C)ONC(N)=O)cc3)c2)CCOCC1 (stereo not drawn) [Example 4, N-{4-[5-fluoro-3-(4-methoxytetrahydropyran-4-yl)phenylthio]-α-methylbenzyloxy}urea] | 310 |  |
| CCN(CC)OC(C)c1ccc(Sc2cc(F)cc(C3(OC)CCOCC3)c2)cc1 (stereo not drawn) [Example 5, N,N-diethyl-O-{4-[5-fluoro-3-(4-methoxytetrahydropyran-4-yl)phenylthio]-α-methylbenzyl}hydroxylamine] | 150 | approximately 1.5 mg/kg |
